According to ChEMBL document CHEMBL1128468, “Amino acid side chain descriptors for quantitative structure-activity relationship studies of peptide analogues” (J Med Chem, 1995):
Peptide text beside a SMILES is read from it.

Legend:
Oxytocin receptor = biological target: T1, Oxytocin receptor (Rattus norvegicus, UniProt P70536); experiment: Biological activity against Oxytocin receptor in rat
T1 sequence (P70536 whole entry): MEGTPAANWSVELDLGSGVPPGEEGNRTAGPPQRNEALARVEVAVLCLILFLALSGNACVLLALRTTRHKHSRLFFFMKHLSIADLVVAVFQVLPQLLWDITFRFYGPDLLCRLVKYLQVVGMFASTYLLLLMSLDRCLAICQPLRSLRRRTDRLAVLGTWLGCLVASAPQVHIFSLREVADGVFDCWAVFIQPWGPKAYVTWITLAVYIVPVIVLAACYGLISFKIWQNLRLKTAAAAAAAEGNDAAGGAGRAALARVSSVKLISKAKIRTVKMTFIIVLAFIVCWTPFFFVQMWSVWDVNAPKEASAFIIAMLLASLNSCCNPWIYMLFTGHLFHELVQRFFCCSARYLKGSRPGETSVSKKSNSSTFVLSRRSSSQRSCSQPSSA

Substance-K receptor [1] = biological target: T2, Substance-K receptor (Oryctolagus cuniculus, UniProt P79218); experiment: Antagonist activity against Tachykinin receptor 2 was measured by Rabbit pulmonary artery(RPA) assay.; format: functional; conditions: read-out: pA2 (converted)
T2 sequence (P79218 whole entry): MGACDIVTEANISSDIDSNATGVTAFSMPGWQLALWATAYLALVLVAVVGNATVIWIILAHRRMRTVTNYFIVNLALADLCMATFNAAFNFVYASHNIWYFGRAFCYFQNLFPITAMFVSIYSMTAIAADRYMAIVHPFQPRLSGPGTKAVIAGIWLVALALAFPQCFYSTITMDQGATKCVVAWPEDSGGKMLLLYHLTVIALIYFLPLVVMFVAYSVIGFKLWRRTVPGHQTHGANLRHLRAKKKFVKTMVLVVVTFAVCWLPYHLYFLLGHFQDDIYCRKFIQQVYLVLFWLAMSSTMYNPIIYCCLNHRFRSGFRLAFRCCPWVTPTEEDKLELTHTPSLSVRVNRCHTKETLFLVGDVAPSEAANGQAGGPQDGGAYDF

Substance-K receptor [2] = biological target: T3, Substance-K receptor (Mesocricetus auratus, UniProt P51144); experiment: Antagonist activity against Tachykinin receptor 2 was measured by Hamster isolated trachea(HT) assay.; format: functional, tissue-based; conditions: read-out: pA2 (converted)
T3 sequence (P51144 whole entry): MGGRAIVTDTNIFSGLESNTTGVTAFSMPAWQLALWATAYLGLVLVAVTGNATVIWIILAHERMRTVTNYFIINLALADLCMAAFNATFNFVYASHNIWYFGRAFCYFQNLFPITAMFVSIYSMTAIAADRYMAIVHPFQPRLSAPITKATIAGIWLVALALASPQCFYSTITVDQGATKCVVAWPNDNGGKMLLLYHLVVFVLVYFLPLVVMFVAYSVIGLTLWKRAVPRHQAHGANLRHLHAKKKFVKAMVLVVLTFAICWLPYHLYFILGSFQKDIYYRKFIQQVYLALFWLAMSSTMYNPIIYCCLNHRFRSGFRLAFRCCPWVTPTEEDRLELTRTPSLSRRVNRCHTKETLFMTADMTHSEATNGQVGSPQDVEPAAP

Substance-K receptor [3] = biological target: T4, Substance-K receptor (Rattus norvegicus, UniProt P16610); experiment: Antagonism against Tachykinin receptor 2 in rat vas deferens(RVD); format: functional; conditions: read-out: pA2 (converted)
T4 sequence (P16610 whole entry): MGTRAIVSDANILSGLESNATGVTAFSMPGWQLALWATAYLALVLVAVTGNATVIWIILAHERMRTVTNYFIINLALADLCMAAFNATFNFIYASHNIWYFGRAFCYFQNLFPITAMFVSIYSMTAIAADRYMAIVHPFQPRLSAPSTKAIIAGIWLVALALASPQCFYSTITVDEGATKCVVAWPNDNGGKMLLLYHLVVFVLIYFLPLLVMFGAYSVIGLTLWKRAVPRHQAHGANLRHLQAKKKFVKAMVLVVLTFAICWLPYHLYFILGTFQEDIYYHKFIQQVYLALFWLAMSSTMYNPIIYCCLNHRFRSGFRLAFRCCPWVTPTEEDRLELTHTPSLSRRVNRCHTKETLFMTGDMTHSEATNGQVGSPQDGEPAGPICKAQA

[4] = Bitter tasting threshold was expressed as log 1/T.; format: functional
[5] = biological target: Angiotensin-converting enzyme (Homo sapiens, UniProt P12821); experiment: Biological activity was measured against Angiotensin I converting enzyme; conditions: read-out: Log 1/IC50 (converted)
Chain of Angiotensin-converting enzyme (P12821 whole entry): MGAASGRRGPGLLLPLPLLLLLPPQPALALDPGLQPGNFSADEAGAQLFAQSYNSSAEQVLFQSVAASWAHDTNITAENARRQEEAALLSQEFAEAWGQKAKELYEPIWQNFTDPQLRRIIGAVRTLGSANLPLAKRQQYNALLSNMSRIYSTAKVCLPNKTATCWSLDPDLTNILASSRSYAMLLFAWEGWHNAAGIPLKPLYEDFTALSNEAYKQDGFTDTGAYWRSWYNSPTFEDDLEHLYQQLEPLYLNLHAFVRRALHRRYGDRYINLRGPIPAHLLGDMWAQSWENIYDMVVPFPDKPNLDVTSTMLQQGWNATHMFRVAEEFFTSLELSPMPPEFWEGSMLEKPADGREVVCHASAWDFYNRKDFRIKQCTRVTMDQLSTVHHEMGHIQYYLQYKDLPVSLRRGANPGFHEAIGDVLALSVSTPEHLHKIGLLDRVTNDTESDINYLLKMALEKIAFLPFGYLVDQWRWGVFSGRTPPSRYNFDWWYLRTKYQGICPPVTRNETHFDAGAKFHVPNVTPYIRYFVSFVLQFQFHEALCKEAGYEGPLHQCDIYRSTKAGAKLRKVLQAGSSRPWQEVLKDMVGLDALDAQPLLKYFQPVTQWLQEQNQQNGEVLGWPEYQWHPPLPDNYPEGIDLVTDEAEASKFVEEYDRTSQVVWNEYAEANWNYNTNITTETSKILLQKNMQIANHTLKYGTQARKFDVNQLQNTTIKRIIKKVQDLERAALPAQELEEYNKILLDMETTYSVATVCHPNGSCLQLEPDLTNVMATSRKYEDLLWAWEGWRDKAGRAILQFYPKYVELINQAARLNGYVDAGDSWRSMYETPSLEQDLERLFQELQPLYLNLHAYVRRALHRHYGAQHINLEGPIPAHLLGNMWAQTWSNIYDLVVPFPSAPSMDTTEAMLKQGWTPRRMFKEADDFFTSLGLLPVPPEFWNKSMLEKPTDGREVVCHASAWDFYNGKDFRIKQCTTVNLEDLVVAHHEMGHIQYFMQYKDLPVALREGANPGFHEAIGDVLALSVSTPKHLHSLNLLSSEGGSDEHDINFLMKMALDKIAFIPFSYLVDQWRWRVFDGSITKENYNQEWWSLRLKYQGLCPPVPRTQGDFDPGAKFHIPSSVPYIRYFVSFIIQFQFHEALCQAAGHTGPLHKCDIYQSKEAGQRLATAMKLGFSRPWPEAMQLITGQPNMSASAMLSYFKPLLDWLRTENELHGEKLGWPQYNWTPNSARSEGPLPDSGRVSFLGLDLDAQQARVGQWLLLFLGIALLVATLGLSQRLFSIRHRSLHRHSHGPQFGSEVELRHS

Molecule	pA2 (Oxytocin receptor)	Kb (Substance-K receptor [1]) [µM]	Kb (Substance-K receptor [2]) [µM]	Kb (Substance-K receptor [3]) [µM]	IC50 [5] [µM]	Log 1/T [4]
CC(C)[C@H](NC(=O)[C@@H](Cc1c[nH]c2ccccc12)NC(=O)[C@H](Cc1ccc(O)cc1)NC(=O)[C@@H](N)CC(=O)O)C(=O)N[C@H](Cc1c[nH]c2ccccc12)C(=O)N[C@H](Cc1c[nH]c2ccccc12)C(=O)N[C@@H](CCCN=C(N)N)C(=O)O	–	0.0224	1.58	0.251	–	–
CC(C)[C@H](NC(=O)[C@@H](Cc1c[nH]c2ccccc12)NC(=O)[C@@H](Cc1c[nH]c2ccccc12)NC(=O)[C@@H](N)CC(=O)O)C(=O)N[C@H](Cc1c[nH]c2ccccc12)C(=O)N[C@H](Cc1c[nH]c2ccccc12)C(=O)N[C@@H](CCCN=C(N)N)C(=O)O	–	100	31.6	2.4	–	–
CC[C@H](C)[C@H](NC(=O)[C@@H](Cc1c[nH]c2ccccc12)NC(=O)CC1(S)CCCCC1)C(=O)N[C@H](CC(N)=O)C(=O)N[C@@H](CC(N)=O)C(=O)N[C@@H](CS)C(=O)N1CCC[C@H]1C(=O)N[C@@H](CCCN=C(N)N)C(=O)NCC(N)=O	5.41	–	–	–	–	–
CC(C)[C@H](NC(=O)[C@@H](Cc1c[nH]c2ccccc12)NC(=O)[C@H](Cc1ccc(O)cc1)NC(=O)[C@@H](N)CC(=O)O)C(=O)N[C@H](Cc1c[nH]c2ccccc12)C(=O)N[C@H](Cc1c[nH]c2ccccc12)C(=O)N[C@@H](CCC(=O)O)C(=O)O	–	2.63	0.427	0.0309	–	–
C[C@H](NC(=O)[C@@H](Cc1c[nH]c2ccccc12)NC(=O)[C@H](Cc1ccc(O)cc1)NC(=O)[C@@H](N)CC(=O)O)C(=O)N[C@H](Cc1c[nH]c2ccccc12)C(=O)N[C@H](Cc1c[nH]c2ccccc12)C(=O)N[C@@H](CCCCN)C(=O)O	–	1.35	0.355	0.295	–	–
CC[C@H](C)[C@H](N)C(=O)N[C@H](C(=O)O)C(C)O (single isomer, unassigned)	–	–	–	–	–	1.49
CC(C)C[C@H](NC(=O)CN)C(=O)O	–	–	–	–	2510	1.68
CC(C)[C@H](NC(=O)[C@H](Cc1c[nH]c2ccccc12)NC(=O)[C@H](Cc1ccc(O)cc1)NC(=O)[C@@H](N)CC(=O)O)C(=O)N[C@H](Cc1c[nH]c2ccccc12)C(=O)N[C@H](Cc1c[nH]c2ccccc12)C(=O)N[C@@H](CCCN=C(N)N)C(=O)O	–	100	15.5	25.7	–	–
CC(C)[C@@H](NC(=O)[C@@H](Cc1c[nH]c2ccccc12)NC(=O)[C@@H](Cc1ccc(O)cc1)NC(=O)[C@@H](N)CC(=O)O)C(=O)N[C@H](Cc1c[nH]c2ccccc12)C(=O)N[C@H](Cc1c[nH]c2ccccc12)C(=O)N[C@H](CCCN=C(N)N)C(=O)O	–	0.407	1.1	0.851	–	–
CC(C)[C@H](NC(=O)[C@@H](Cc1c[nH]c2ccccc12)NC(=O)[C@H](Cc1ccc(O)cc1)NC(=O)[C@@H](N)CC(=O)O)C(=O)N[C@H](Cc1c[nH]c2ccccc12)C(=O)N[C@H](Cc1c[nH]c2ccccc12)C(=O)N[C@H](Cc1c[nH]c2ccccc12)C(=O)O	–	1.62	1.38	0.155	–	–
CCC(C)[C@H](NC(=O)[C@@H](N)[C@@H](C)CC)C(=O)O (single isomer, unassigned)	–	–	–	–	–	2.26
CC(C)[C@H](NC(=O)[C@@H](Cc1c[nH]c2ccccc12)NC(=O)[C@H](Cc1ccc(O)cc1)NC(=O)[C@@H](N)CC(N)=O)C(=O)N[C@H](Cc1c[nH]c2ccccc12)C(=O)N[C@H](Cc1c[nH]c2ccccc12)C(=O)N[C@@H](CCCN=C(N)N)C(=O)O	–	0.0646	1.17	0.347	–	–
H-DYYVYYR-OH	–	100	100	9.33	–	–
NCC(=O)N[C@@H](Cc1ccccc1)C(=O)O (H-Gly-Phe-OH)	–	–	–	–	631	1.8
CC(C)[C@H](NC(=O)[C@@H](Cc1c[nH]c2ccccc12)NC(=O)[C@H](Cc1ccc(O)cc1)NC(=O)[C@@H](N)CC(=O)O)C(=O)NCC(=O)N[C@H](Cc1c[nH]c2ccccc12)C(=O)N[C@@H](CCCN=C(N)N)C(=O)O	–	19.5	6.31	18.6	–	–
CC(C)C[C@H](NC(=O)[C@@H](N)C(C)C)C(=O)O (H-Val-Leu-OH)	–	–	–	–	–	2
CC[C@H](C)[C@@H]1NC(=O)[C@@H](Cc2c[nH]c3ccccc23)NC(=O)CC2(CCCCC2)SSC(C)(C)[C@H](C(=O)N2CCC[C@H]2C(=O)N[C@@H](CCCN=C(N)N)C(=O)NCC(N)=O)NC(=O)[C@H](CC(N)=O)NC(=O)[C@H](CCC(=O)O)NC1=O	7.98	–	–	–	–	–
CC(C)[C@H](NC(=O)[C@@H](Cc1c[nH]c2ccccc12)NC(=O)[C@H](Cc1ccc(O)cc1)NC(=O)[C@@H](N)CC(=O)O)C(=O)N[C@H](Cc1c[nH]c2ccccc12)C(=O)N[C@H](Cc1c[nH]c2ccccc12)C(=O)N[C@@H](Cc1ccccc1)C(=O)O	–	1.26	0.933	0.288	–	–
CSCC[C@H](NC(=O)[C@@H](Cc1c[nH]c2ccccc12)NC(=O)[C@@H](Cc1c[nH]c2ccccc12)NC(=O)[C@@H](NC(=O)[C@@H](Cc1c[nH]c2ccccc12)NC(=O)[C@H](Cc1ccc(O)cc1)NC(=O)[C@@H](N)CC(=O)O)C(C)C)C(=O)O	–	0.0891	1.45	0.38	–	–

More lines, main results first:

pA2 (Oxytocin receptor)	Kb (Substance-K receptor [1]) [µM]	Kb (Substance-K receptor [2]) [µM]	Kb (Substance-K receptor [3]) [µM]	IC50 [5] [µM]	Molecule	Log 1/T [4]
5.51	–	–	–	–	CC[C@H](C)[C@H](NC(=O)[C@@H](Cc1c[nH]c2ccccc12)NC(=O)CC1(S)CCCCC1)C(=O)N[C@H](CCCNC(N)=O)C(=O)N[C@@H](CC(N)=O)C(=O)N[C@@H](CS)C(=O)N1CCC[C@H]1C(=O)N[C@@H](CCCN=C(N)N)C(=O)NCC(N)=O	–
–	100	1.74	0.191	–	CC(C)[C@H](NC(=O)[C@@H](Cc1c[nH]c2ccccc12)NC(=O)[C@H](Cc1ccc(O)cc1)NC(=O)[C@@H](N)CC(=O)O)C(=O)N[C@H](Cc1c[nH]c2ccccc12)C(=O)N[C@H](Cc1c[nH]c2ccccc12)C(=O)N[C@@H](Cc1ccc(O)cc1)C(=O)O	–
5.24	–	–	–	–	CC[C@H](C)[C@H](NC(=O)[C@@H](Cc1c[nH]c2ccccc12)NC(=O)CC1(S)CCCCC1)C(=O)N[C@H](CCC(N)=O)C(=O)N[C@@H](CC(N)=O)C(=O)N[C@@H](CS)C(=O)N1CCC[C@H]1C(=O)N[C@@H](CCCN=C(N)N)C(=O)NCC(N)=O	–
–	12.9	17.4	4.37	–	H-DYPVWWR-OH	–
–	0.191	0.646	0.224	–	CC(C)C[C@H](NC(=O)[C@@H](Cc1c[nH]c2ccccc12)NC(=O)[C@@H](NC(=O)[C@@H](Cc1c[nH]c2ccccc12)NC(=O)[C@H](Cc1ccc(O)cc1)NC(=O)[C@@H](N)CC(=O)O)C(C)C)C(=O)N[C@@H](CCCN=C(N)N)C(=O)O	–
–	4.79	6.46	1.95	–	CSCC[C@H](NC(=O)[C@@H](Cc1c[nH]c2ccccc12)NC(=O)[C@@H](Cc1c[nH]c2ccccc12)NC(=O)[C@@H](NC(=O)[C@@H](Cc1c[nH]c2ccccc12)NC(=O)[C@H](CO)NC(=O)[C@@H](N)CC(=O)O)C(C)C)C(=O)O	–
–	0.263	0.562	0.38	–	CC(C)[C@@H](NC(=O)[C@@H](Cc1c[nH]c2ccccc12)NC(=O)[C@@H](Cc1ccc(O)cc1)NC(=O)[C@@H](N)CC(=O)O)C(=O)NCC(=O)N[C@H](Cc1c[nH]c2ccccc12)C(=O)N[C@H](CCCN=C(N)N)C(=O)O	–
–	100	14.8	14.1	–	CSCC[C@H](NC(=O)[C@H](CC(C)C)NC(=O)CNC(=O)[C@@H](Cc1c[nH]c2ccccc12)NC(=O)[C@H](Cc1ccccc1)NC(=O)[C@H](Cc1ccc(O)cc1)NC(=O)[C@@H](N)CC(=O)O)C(=O)O	–
–	–	–	–	191	C[C@H](N)C(=O)N[C@@H](Cc1ccccc1)C(=O)O	1.72
